# Results reported in US20140130208A1, “METHODS AND MEANS TO PRODUCE ABIOTIC STRESS TOLERANT PLANTS” (VIB VZW, priority 2011, published 2014).
# What was measured:
# [1] = tested on: Arabidopsis thaliana third true leaf; experiment: Growth (kinematic) analysis of the third leaf after transfer of seedlings to mannitol- or ACC-containing medium; assay type: in vivo; details: for reduction in leaf area: 72 h after transfer to mannitol (12 DAS)
# Procedure: Arabidopsis seedlings were germinated and grown on nylon meshes overlaying control medium until 9 days after stratification (DAS), when the third true leaf is fully proliferating (Skirycz et al., 2010), and subsequently transferred to control or mannitol-containing medium (FIGS. 1A to 10). Kinematic analysis was performed, whereby leaves were harvested daily throughout development of leaf 3 (9-20 DAS) and based on drawings of the abaxial epidermis cell number, cell area, number of guard cells and cell division and cell expansion rates were calculated (De Veylder et al., 2001). […] Leaf and plant morphology were not altered by mannitol (FIG. 2C). Cell expansion was also affected by stress and the reduced final leaf area was a combination of fewer and smaller cells (FIG. 2D). The stomatal index, which represents the number of stomata as a fraction of the total number of cells, was reduced as well (FIG. 2E). To learn more about the mechanisms underlying the rapid reduction of cell division upon stress onset, we harvested leaf samples daily after transfer. As a measure of cellular differentiation, the ploidy distribution was examined by flow cytometry. […] In stressed leaves, 4C nuclei started to accumulate approximately one day earlier than in controls at the expense of 2C nuclei (FIG. 3A). Analogously, the number of 8C nuclei increased sharply at 14 DAS in stressed leaves, but only at 15 DAS in control samples (FIG. 3A). Again, transfer itself had no effect on ploidy levels (not shown). […] This observation was further investigated with a CYCB1;1:Dbox-GUS reporter line. Staining for CYCB1;1:Dbox-GUS activity visualizes cells at the G2-to-M transition, reflecting mitotic activity (Colón-Carmona et al., 1999). The most apparent differences were observed 48 h after transfer. […] While the relative size of the cell proliferation zone was similar in mannitol-treated leaves, the remaining proliferating cells were found in a dispersed pattern throughout this zone. […] Within a few days after transfer, division rates adapted to the new conditions and compensation effects were observed.
# Seedlings of Arabidopsis thaliana (L.) Heyhn. ecotype Columbia-0 (Col-0) were grown in vitro in half-strength Murashige and Skoog medium (Murashige and Skoog, 1962), supplemented with 1% sucrose under a 16-h day (110 μmol m^−2 s^−1) and 8-h night regime. Plates were overlaid with nylon mesh (Prosep, Zaventem, Belgium) of 20 μm pore size to avoid that roots grew into the medium. Depending on the experiment, 32 or 64 seeds were equally distributed on a 150-mm diameter plate. Mutant plants were grown together with their wild-type controls on the same plate.
# (§1) At 9 DAS, when the third leaf is fully proliferating, seedlings were transferred to plates containing control medium or medium supplemented with 25 mM mannitol (Sigma-Aldrich) or 5 μM ACC (Sigma-Aldrich) by gently lifting the nylon mesh with forceps. For the CDKA activity assay the transfer was done at 11 DAS; at this stage, the third leaf is still dividing and can be quickly harvested without the need for RNAlater solution (see below) that would inhibit CDKA activity. All transfers were performed 2-3 h into the day.
# Growth analysis was performed on the third true leaf harvested at different time points after transfer. After clearing with 70% ethanol, leaves were mounted in lactic acid on microscopic slides. For each experiment, 8-12 leaves were photographed with a binocular, and epidermal cells (40-300) were drawn for four representative leaves with a DMLB microscope (Leica) fitted with a drawing tubus and a differential interference contrast objective. Photographs of leaves and drawings were used to measure leaf and cell area, respectively, with ImageJ v1.41o (NIH; http://rsb.info.nih.gov/ij/), from which the cell numbers were calculated. The stomatal index was defined as the percentage of stomata per all cells. […]
# [2] = tested on: CDKA; experiment: CDKA activity assay on protein extracted from proliferating third leaves; assay type: in vivo, Arabidopsis thaliana; details: wild type; 10 and 24 h after transfer to 25 mM mannitol or 5 μM ACC
# Procedure: as §1
# Total soluble protein was extracted from 50 leaves by adding extraction buffer (Van Leene et al., 2007) to ground samples, followed by two freeze-thaw steps and two centrifugation steps (20,817 g, 10 min, 4° C.), whereby the supernatant was collected each time. Equal amounts of total protein were incubated with p9^CKS1Hs-sepharose beads (De Veylder et al., 1997) and kinase assays were performed as described (De Veylder et al., 1997) with histone H1 as CDK substrate. To correct for the amount of CDKA protein purified by p9^CKS1Hs-sepharose beads, an aliquot of each sample was used for protein gel blot analysis with primary rabbit anti-PSTAIRE antibodies (Santa Cruz) (diluted 1:5000) and a secondary horseradish peroxidase-conjugated donkey anti-rabbit antibodies (GE-Healthcare) (diluted 1:10,000). Proteins were detected by chemiluminescence (Western Lightning Plus ECL, PerkinElmer Life Sciences). CDK activity and CDKA amount were quantified with ImageJ v1.41o. Control samples were arbitrarily set at 100%.
# [3] = transfer at 9 DAS to 25 mM mannitol or 5 μM ACC, leaf 3
compound,measurement,setting,value
OC[C@@H](O)[C@@H](O)[C@H](O)[C@H](O)CO [mannitol],leaf and plant morphology,[1]; 25 mM mannitol,not altered
same,reduction of leaf area,[1]; 25 mM mannitol in growth medium,approximately 50%
same,reduction in leaf area,[1]; ein5.1 mutant,~20%
same,reduction in leaf area,[1]; etr1.3 mutant,~30%
same,cell proliferation rates,[1]; [3],reduced proliferation rates
same,stomatal index,[1]; [3],reduced
same,reduction in leaf area,[1]; wild type,~45%
same,CDKA activity,[2],decreased as early as 10 h after stress onset and remained low at 24 h
